Assay results reported in patent publication US7074925B1, “N-substituted derivatives of 5-oxyiminobarbituric acid” (priority 1998, dated 2006).
Values after ≈ are worked out from the molar mass of the structure shown.

Key:
[1] = Psychostimulating activity, symptom score; format: in vivo, mice; conditions: tested substances perorally 300 mg/kg, one hour after; maximum 30 points, more than 12 significant
[2] = tested on: cholesterol synthesis by human's fibroblasts; assay: Inhibition of cholesterol synthesis in human's fibroblasts; format: cell-based; conditions: 400 ng/ml, [2-14C] acetate incorporation, 4 hours
Procedure: Influence of the substance (400 ng/ml) on cholesterol synthesis by human's fibroblasts was investigated. […] The spots corresponding to cholesterol were removed from a plate to a vial and then were coated with scintillation liquid; after that radioactivity was measured expressed as pulse/min/mg of cell protein. Lovastatin taken in the same concentration as the tested substance was utilized as a reference agent.

[3] = Hepatoprotective activity, CCl4 liver damage (AlAT); format: in vivo, rats
Procedure: CCl4 dissolved in 50% olive oil (1 ml/kg) was subcutaneously administrated to rats. Test substances were administrated perorally in a dose of 20 mg/kg 30 minutes before and 7 hours after the CCL4 administration. The activity of alanine-aminotranspherase (AlAT), which is a marker enzyme of liver parenchyma damage, was assessed twenty-four hours later. Reducing of enzyme amount by more than 30% relative to the control group was considered as evidence of hepatoprotective properties of the substance.
Silymarin in a dose of 100 mg/kg was used as a reference agent.

[4] = tested on: Herpes virus of the type I (HSV-I/Leningrad/248/88); assay: Effect on Herpes virus, cytopathogenic action on Vero cells; format: cell-based, Herpes Simplex virus; conditions: compound 100 μg/ml; for Quantity of the unchanged cells (number of cells in 100 visual fields): Vero cells, 36 hours, cell control 10000; for percentage of protection of cells from virus: compared to the control of cell culture
Procedure: An antiviral activity was determined with respect to Herpes virus of the type I (HSV-I/Leningrad/248/88) by means of commonly accepted method. Viruses were grown on a continuous culture of Vero cells that have been received from the Bank of Cell Cultures of the Institute of Cytology of the Russian Academy of Science.
A virus in a final concentration of […] and the claimed compounds dissolved in DMSO in final concentrations of 100, 10 and 1 mg/l were added to cells that were grown on the RPMI-1640 medium with 10% fetal calf serum and placed into wells of the 96-well plate. 5 separate wells were used for each of tested concentrations of an agent. The plate was incubated during 60 minutes at 38° C. in a CO2-incubator. After the incubation, the virus was removed and then a fresh medium containing claimed compounds in used concentrations was again introduced.
Results were evaluated basing on presence of cytopathogenic action on the cells after 36 hours of incubation at 38° C. in the CO2-incubator.
The next controls were used in the experiment: • 1. Control of cell culture (capability to grow properly) • 2. Control of the virus (evaluation of capability for reproduction) • 3. Control of an antiviral activity of an antiviral drug Acyclovir • 4. Control of compounds (toxicity of compounds) • 5. Control of a solvent (DMSO) for toxicity.
To estimate a cytopathic action of the virus, a quantity of the unchanged cells was calculated in 100 visual fields formed by a special net of an eyepiece of the inverted microscope.

[5] = Antiulcerous action, water immersion stress with immobilization; format: in vivo, rats; conditions: 20 mg/kg perorally; for % of animals with ulcers: rats, 4 hours stress, control 100; for % of reducing number of ulcers / % of reducing ulceration index: versus control; for Number of lesions: control 8.3 ± 2.5; for ulceration index: control 10.5 ± 5.7
Procedure: Antiulcerous activity of substances was tested on a model of experimental water immersion stress with immobilization. […] After that, gastric mucous membrane was investigated, number and sizes of ulcers were counted, ulceration index was determined (an average sum of ulcer lengths per one animal in a group).

[6] = Hypoglycemic activity after glucose load; format: in vivo, mice; conditions: 100 mg/kg perorally, glucose 1000 mg/kg s.c.; for Glucose in blood: after one hour, glucose control 8.26 ± 0.50
Procedure: Test substance (100 mg/kg) was perorally administrated to fasted mice, and, immediately after that, solution of glucose (1000 mg/kg) was administrated subcutaneously. Glucose content in blood was determined in a hour by the orthotoluidine method. Reducing of glucose level by more than 20% relative to control animals indicated hypoglycemic properties. Glibenclamide (I mg/kg) was utilized as a reference agent.

[7] = Psychodepressive activity, behavioral score; format: in vivo, mice; conditions: per oral 300 mg/kg, one hour after dosing; total 60, less than 40 significant
Procedure: Each parameter scores 2 points for an each mouse that had unchanged behavior. The total point sum was 60 (2×10×3 mice). Reducing score to less than 40 one hour after dosing with a substance per oral (300 mg/kg) denoted significant behavioral depression. Haloperidol was utilized as a reference agent.

C.trachomatis D323 = assay: Action on Chlamydia trachomatis in cell culture; format: cell-based; conditions: 100 mg/l
Procedure: The antimicrobial activity of the claimed compounds was studied relative to C.trachomatis […], which is a standard strain from the collection of the chair of microbiology of St. Petersburg State Pavlov Medical University. […] Cell cultures McCoy and L929 obtained from the Institute of Cytology of RAS were used in this work. Cells were grown in flasks made of neutral glass in the medium RPMI-1640 with the addition of 10% of fetal calf serum. The test was performed in glass (non-toxic) flat-bottom flasks with cover glasses. The cells were introduced into the medium in the final concentration of […]. […] Simultaneously, tested compounds in a final concentration of 100 mg/l were added to the cells. The sample was centrifuged at 2400 G during 60 minutes at room temperature and incubated at 37° C. for 2 hours. […] The samples were doubled using the medium without cycloheximide so as to exclude its effect on the investigated compounds. The samples were incubated in a CO2-incubator for 48 hours. […] The effect of the action of substance was determined by analysis of the monolayer state and number of cells with CPI when compared with the control (cell culture infected with C.trachomatis […]); in doing so, the number of unchanged cells, that were counted in 100 visual fields obtained using the special net of the microscope eyepiece, was taken into consideration. […] Control of cell culture: morphology of cells and state of monolayer correspond to the given type of the cells; control of chlamydia growth in the cell culture: presence of CPI in the monolayer; control of action of standard antimicrobial agent: reduction of number of CPI in the monolayer as compared to the previous control; control of toxicity of the claimed compounds: toxicity is absent; control of action of solvents: toxic action on cells is absent.

[8] = Antioxidant action, riboflavine chemiluminescence; format: biochemical; conditions: solvent water, phosphate buffer pH 9.1
Source text: To assess a general antioxidant activity the method of riboflavine chemiluminescence was used. The test substance was introduced into a system consisted of phosphate buffer (pH 9.1), solution of riboflavine, and solution of bivalent iron sulfate. Chemiluminescence was initiated by 0.1% solution of hydrogen peroxide and registered by means of luminometer. […] Ascorbic acid was used as a reference agent.

[9] = tested on: Human's platelet aggregation; assay: Antiaggregational properties, ADP-induced platelet aggregation; format: cell-based; conditions: 100 μg/ml, ADP […], platelet-enriched human plasma
Source text: Human's platelet aggregation was investigated in plasma of healthy 50±3 years donors that was enriched by thrombocytes, by means of aggregometer FRM-1. […] Magnitude of a maximum non-reversible platelet aggregation in the control samples (solvent) was adopted as 100%, and that in tested samples was counted as the percentage compared to the control.

[10] = tested on: primary culture of human lymphocytes (IFN-α production); assay: Interferon-inducing activity in primary culture of human lymphocytes; format: cell-based
Procedure: Interferon synthesis induction caused by the claimed compounds was conducted on a primary culture of human lymphocytes (it is these cells in a human organism that are the main producers of interferons). To obtain lymphocyte culture, fresh blood (within 12 hours after sampling) from healthy donors (not of group II) was used. To separate lymphocytes, heparinized blood obtained from healthy donor was centrifuged in a density gradient of ficoll-verografin of […] in order to extract a fraction of immunocompetent cells. This fraction was selected and diluted with the nutrient medium RPMI-1640, containing 5% of fetal calf serum, 0.3 mg/ml of L-glutamin, 100 un/ml of penicillin, and […] of streptomycin. The concentration of lymphocytes was considered after dying them with methylene blue and calculation of cell number in Goryaev chamber. Initial solutions of the claimed compounds were diluted with the nutrient medium RPMI-1640 so that the final concentrations of the compounds, which were obtained after introduction of lymphocyte suspension, constituted the raw: 100 μg/ml, 10 μg/ml, 1 μg/ml. The final concentration of lymphocytes in the induction mixture was 3×10^6 cell/ml.
In parallels to the test samples the following controls were done: • 1). Control of spontaneous production of interferons (IFN) by lymphocytes. • 2). […] Control of spontaneous production of interferons in presence of DMSO taken in an amount corresponding to the test samples.
Control and test samples were incubated for 24 hours at the temperature of 37° C. After incubation, the samples were centrifuged at 2,000 G to deposit cell elements, and IFN-containing supernatant was separate out of samples; then the supernatant was analyzed for the quantitative content of IFN. Cell deposition was resuspended in the previous volume of nutrient medium, coloured with vital dye trypan blue, and cell number was counted in the Goryaev chamber (as described above) to determine cytotoxic action of the compounds. The quantitative determination of content of IFN in control and test samples was conducted using the immunoenzyme test system Pro Con IF2 Plus, that is intended for determination of IFN-α, which is produced by TOO “Protein contour”. The solid-phase immunoenzyme method, utilizing horse radish peroxidase as an indicator enzyme, was used to determine the quantity of interferon in the samples. Activity of the bonded peroxidase was measured using an automatic photometer for microplates with a microprocessor at the wavelength of 450 nm.
Based on the obtained results, a calibrating curve was formed, which allows to obtain data expressed in international units (IU) of activity, using the microprocessor of the automatic photometer. The results of the analysis are expressed in IU of activity of IFN per ml in the given induction system, which contains 3×10^4 lymphocyte/ml. Each test and control point was investigated in four parallels.
Controls of immunoenzyme reaction: • 1. Control of DMSO with a nutrient medium. • 2. Control of system components (according to an instruction).
The obtained data were undergone a statistical analysis using t-criterion, and calculation of the confident interval of probability at p=0.05 was carried out. Coincidence of results in the parallel tests was analyzed.

[11] = Determination of maximal tolerable dose; format: in vivo; conditions: oral administration, mice, observed 72 hours; 300 was the maximally utilized one
Procedure: Tested substance was introduced perorally (in dose of 300 mg/kg) through a gastric tube or intraperitoneally (in dose of 100 mg/kg) to no-breed white mice with mass 18-20 g (each tested group consisted of 3 males and 3 females). Then the mouse state was observed during 72 hours. Absence of symptoms characteristic of toxic effects, or absence of animal death during the given time allows to make a conclusion that the toxicity of the test substance is low. If acute toxicity effects are observed, the dose is reduced to find maximal tolerable dose.

Row | Structure (SMILES) | Quantity of the unchanged cells (number of cells in 100 visual fields) [4] | percentage of protection of cells from virus [4] | % of animals with ulcers [5] | % of reducing number of ulcers [5] | % of reducing ulceration index [5] | Number of lesions [5] | ulceration index [5] | % change of glucose relative to glucose control [6] | Glucose in blood [6] | IC50, suppressing chemiluminescence by 50% [8] | % of inhibition of platelet aggregation [9] | also measured
1 | CN1CCc2cccc3c2[C@H]1Cc1ccc(O)c(O)c1-3 [Apomorphine, reference compound] | – | – | – | – | – | – | – | – | – | – | – | Number of points (psychostimulation) [1]: 19
2 | CC[C@H](C)C(=O)O[C@H]1C[C@@H](C)C=C2C=C[C@H](C)[C@H](CC[C@@H]3C[C@@H](O)CC(=O)O3)[C@H]21 [Lovastatin, reference compound] | – | – | – | – | – | – | – | – | – | – | – | inhibition at 0.4 µg/mL ([2]; Homo sapiens, Fibroblast): 76.4%
3 | O=C1NC(=O)N(c2ccc(F)cc2)C(=O)C1=NO [XXVII] | 6500 | (65%) | 67% | −79% | −88% | 1.7 ± 1.3 | 1.3 ± 1.0 | −12% | 7.26 ± 0.41 mmol/L | 13.00 µg/mL (≈ 51.8 µM) | 24.3 ± 4.8% | AlAT ([3]; 20 mg/kg perorally 30 minutes before and 7 hours after CCl4, 24 hours, CCl4 control 0.83 ± 0.21, intact 0.27 ± 0.04): 0.42 ± 0.08 mmol/L/h; % of reducing AlAT ([3]; 20 mg/kg perorally, relative to CCl4 control): −49%; Point number (behavioral depression) [7]: 31; percentage of cell protection from infection (C.trachomatis D323): (65%); Number of unchanged cells (C.trachomatis D323; 48 hours, counted in 100 visual fields, cell control 8.000, infected cells 6.000): 7.300
4 | O=C1NC(=O)N(c2cccc(C(F)(F)F)c2)C(=O)C1=NO [XXXII] | 5000 | (50%) | 100% | −52% | −64% | 4.0 ± 1.3 | 3.8 ± 1.5 | −14% | 7.10 ± 0.28 mmol/L | 6.40 µg/mL (≈ 21.2 µM) | 64.3 ± 6.2% | % of inhibition of cholesterol synthesis [2]: 23.5%; Content of IFN in induction mixture after 24-hour incubation ([10]; substance 1 mg/l): 12.5 ± 1.0 IU/3 × 10^4 lymph./ml; Content of IFN in induction mixture after 24-hour incubation ([10]; substance 10 mg/l): 77.5 ± 1.5 IU/3 × 10^4 lymph./ml; Content of IFN in induction mixture after 24-hour incubation ([10]; substance 100 mg/l): 126.5 ± 1.6 IU/3 × 10^4 lymph./ml; Maximal tolerable dose, concentration of test substances [11]: 300 mg/kg
